Test results as given in ChEMBL document CHEMBL5236567, “Discovery of a selective c-MET inhibitor with a novel binding mode” (Bioorg Med Chem Lett, 2022).

Experiments:
[1] = target: T1, Hepatocyte growth factor receptor (Homo sapiens, UniProt P08581); assay: Binding affinity to his-tagged wild type c-MET (1050 to 1346 residues) (unknown origin) by surface plasmon resonance analysis
[2] = target: T2, Hepatocyte growth factor receptor (Homo sapiens, UniProt P08581, D1228V); assay: Binding affinity to his-tagged c-MET D1228V mutant (1050 to 1346 residues) (unknown origin) assessed as dissociation constant by surface plasmon resonance analysis
[3] = target: T1, Hepatocyte growth factor receptor; assay: Binding affinity to his-tagged c-MET (1050 to 1346 residues) (unknown origin) assessed as binding constant (Kon) by surface plasmon resonance analysis
[4] = target: T1, Hepatocyte growth factor receptor; assay: Binding affinity to his-tagged c-MET (1050 to 1346 residues) (unknown origin) assessed as binding constant (Koff) by surface plasmon resonance analysis
[5] = target: T1, Hepatocyte growth factor receptor; assay: Inhibition of his-tagged wild type c-MET (1050 to 1346 residues) (unknown origin) by ADP-glo assay
[6] = target: T2, Hepatocyte growth factor receptor; assay: Inhibition of his-tagged c-MET D1228V mutant (1050 to 1346 residues) (unknown origin) by ADP-glo assay
[7] = target: T1, Hepatocyte growth factor receptor; assay: Inhibition of his-tagged wild type c-MET (1050 to 1346 residues) (unknown origin) in human NCI-H1993 cells by HTRF analysis; assay type: cell-based
[8] = target: T2, Hepatocyte growth factor receptor; assay: Inhibition of his-tagged c-MET D1228V mutant (1050 to 1346 residues) (unknown origin) in human NCI-H1993 cells by HTRF analysis; assay type: cell-based
[9] = target: T1, Hepatocyte growth factor receptor; assay: Inhibition of wild type c-MET (unknown origin ) at 10 uM relative to control
[10] = target: TRAF2 and NCK-interacting protein kinase (Homo sapiens) (UniProt Q9UKE5); assay: Inhibition of TNIK (unknown origin) at 10 uM relative to control
TRAF2 and NCK-interacting protein kinase (Homo sapiens), sequence (Q9UKE5 whole entry, looked up): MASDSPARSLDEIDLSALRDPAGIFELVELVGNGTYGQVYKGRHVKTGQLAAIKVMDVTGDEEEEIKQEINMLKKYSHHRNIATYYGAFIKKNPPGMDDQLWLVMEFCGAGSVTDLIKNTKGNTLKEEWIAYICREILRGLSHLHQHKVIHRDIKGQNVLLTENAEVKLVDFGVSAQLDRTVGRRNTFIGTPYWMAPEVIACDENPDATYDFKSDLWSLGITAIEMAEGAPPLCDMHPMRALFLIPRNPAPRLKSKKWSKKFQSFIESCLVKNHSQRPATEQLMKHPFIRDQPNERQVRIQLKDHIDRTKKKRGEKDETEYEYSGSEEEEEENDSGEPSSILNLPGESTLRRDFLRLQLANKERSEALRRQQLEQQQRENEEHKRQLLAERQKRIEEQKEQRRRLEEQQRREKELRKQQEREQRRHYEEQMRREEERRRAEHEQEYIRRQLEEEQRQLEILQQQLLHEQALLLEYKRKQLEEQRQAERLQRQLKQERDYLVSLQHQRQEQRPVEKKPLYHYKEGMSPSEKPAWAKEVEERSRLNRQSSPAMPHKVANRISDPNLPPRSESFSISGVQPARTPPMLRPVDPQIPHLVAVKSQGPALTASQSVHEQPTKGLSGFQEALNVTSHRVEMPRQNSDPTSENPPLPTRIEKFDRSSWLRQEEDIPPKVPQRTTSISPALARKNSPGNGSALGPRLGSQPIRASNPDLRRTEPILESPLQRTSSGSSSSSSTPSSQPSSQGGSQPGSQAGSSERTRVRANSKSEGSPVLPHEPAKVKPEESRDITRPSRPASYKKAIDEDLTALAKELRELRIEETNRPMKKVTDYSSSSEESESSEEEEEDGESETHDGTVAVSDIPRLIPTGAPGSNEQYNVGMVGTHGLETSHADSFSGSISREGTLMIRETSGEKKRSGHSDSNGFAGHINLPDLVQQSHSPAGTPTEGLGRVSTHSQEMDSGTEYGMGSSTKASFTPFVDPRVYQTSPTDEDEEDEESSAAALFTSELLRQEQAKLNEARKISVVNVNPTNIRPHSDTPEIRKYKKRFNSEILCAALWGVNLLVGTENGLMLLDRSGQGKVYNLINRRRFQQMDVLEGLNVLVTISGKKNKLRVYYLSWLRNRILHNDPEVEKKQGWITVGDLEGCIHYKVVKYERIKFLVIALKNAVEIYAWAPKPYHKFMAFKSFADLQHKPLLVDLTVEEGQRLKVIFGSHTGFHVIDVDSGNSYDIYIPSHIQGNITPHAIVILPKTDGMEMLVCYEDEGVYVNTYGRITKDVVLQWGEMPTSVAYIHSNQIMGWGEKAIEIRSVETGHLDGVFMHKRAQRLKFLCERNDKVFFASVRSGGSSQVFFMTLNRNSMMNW

[11] = target: Calcium/calmodulin-dependent protein kinase type 1 (Homo sapiens) (UniProt Q14012); assay: Inhibition of CAMK1 (unknown origin) at 10 uM relative to control
Calcium/calmodulin-dependent protein kinase type 1 (Homo sapiens), sequence (Q14012 whole entry, looked up): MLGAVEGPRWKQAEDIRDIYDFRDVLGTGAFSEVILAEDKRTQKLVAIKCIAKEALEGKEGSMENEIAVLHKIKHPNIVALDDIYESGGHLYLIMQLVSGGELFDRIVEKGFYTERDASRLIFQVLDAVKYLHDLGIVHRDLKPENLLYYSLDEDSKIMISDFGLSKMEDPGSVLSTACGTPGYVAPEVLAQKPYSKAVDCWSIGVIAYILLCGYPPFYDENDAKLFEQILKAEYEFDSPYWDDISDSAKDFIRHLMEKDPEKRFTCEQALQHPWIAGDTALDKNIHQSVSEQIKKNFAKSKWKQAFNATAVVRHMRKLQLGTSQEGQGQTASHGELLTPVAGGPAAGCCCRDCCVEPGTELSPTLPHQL

Kd [1] [µM]	Kd [2] [µM]	K [3]	koff [4] [s⁻¹]	IC50 [5] [µM]	IC50 [6] [µM]	IC50 ([7]; nci-h1993)	IC50 ([8]; nci-h1993)	IC50 ([7]; read-out: IC50) [µM]	IC50 ([8]; read-out: IC50) [µM]	inhibition [9] [%]	inhibition [10] [%]	inhibition [11] [%]	Structure (SMILES)
> 20	1.4	3.7 10^3/M/s	0.0053	–	–	–	–	–	–	–	–	–	Cc1ccc(-c2ccc3c(C)n[nH]c3c2)c2c1C(N(C)C(=O)c1ncccc1C(F)F)CCC2 (racemic)
2.8	5.3	–	–	4.94	11	Not Active	Not Active	–	–	–	–	–	Cc1ccc(-c2ccc3c(C)n[nH]c3c2)c2c1[C@@H](N(C)C(=O)c1ncccc1C(F)F)CCC2
7.2	0.65	–	–	0.9	0.09	–	–	> 30	12	> 70	> 70	> 70	Cc1ccc(-c2ccc3c(C)n[nH]c3c2)c2c1[C@H](N(C)C(=O)c1ncccc1C(F)F)CCC2
